Data: patent publication US4525348A, “Pranoprofen gelled ointment” (priority 1983, dated 1985)

How the values were obtained:
[1] = oral administration, as compared with indomethacin or other nonsteroid agents; cited from earlier work
[2] = Percutaneous absorption and excretion (Experiment 8); details: rat
Excerpt: Male Donryu rats weighing 120-140 g were divided into groups of 4 animals each. The backs of the rats were shaved with an electric clipper and an electric shaver. […] After this application, the test ointment remaining was wiped off at a set time with absorbent cotton moistened with 50% ethanol. The contained ^14 C was eluted with methanol and determined by conventional methods.

- Half life of disappearance from blood ([2]; absorbed pranoprofen, topical): about 5 hours
- Excretion route ([2]; in vivo): excreted mainly into urine and feces
SMILES: CC(C(=O)O)c1ccc2c(c1)Cc1cccnc1O2 (stereo not drawn) [pranoprofen]
- Adverse effects such as gastroenteric disorders [1]: very rarely
